For test [1], the target named is T1, CFTR G551D mutant (Homo sapiens, UniProt P13569, G551D).
T1 construct: expressed in transfected cells; host or cells: HEK293 cells, reverse transfection with plasmids
The test is described as follows: YFP-halide influx assay for the CFTR-G551D mutation (HEK293 cells). To be noted: forskolin 10.67 μM. The format is cell-based. Summed up: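 Channel opening read as I⁻-driven quenching of a YFP H148Q/I152L/F47L reporter over 7 s post-injection, expressed as 1−F/F0 and fitted against concentration for EC50. Cells were HEK293 co-transfected at seeding with G551D CFTR plus reporter, then grown 24 h at 37 °C, 5% CO2.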

In test [2] the target is T2, CFTR ΔF508 mutant (Homo sapiens, UniProt P13569, DEL508-508).
T2 construct: expressed in transfected cells; host or cells: CFBE41o- cells, adenoviral transduction
The test is described as follows: YFP-halide influx assay for the CFTR-ΔF508 mutation (CFBE41o- cells). The class given is cell-based. To be noted: forskolin 10.67 μM; for EC50: from (1−F/F0) vs concentration plot. Summed up: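 EC50 derived from plotting 1−F/F0 (fluorescence 36 s after iodide injection over pre-injection value) against compound concentration. Cells: CFBE41o- transduced with ΔF508-CFTR and YFP quench reporter, corrected 24 h at 27° C or by a CFTR modulator at 37° C.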

T2 sequence (P13569 with tags, fused parts or gaps DEL508-508): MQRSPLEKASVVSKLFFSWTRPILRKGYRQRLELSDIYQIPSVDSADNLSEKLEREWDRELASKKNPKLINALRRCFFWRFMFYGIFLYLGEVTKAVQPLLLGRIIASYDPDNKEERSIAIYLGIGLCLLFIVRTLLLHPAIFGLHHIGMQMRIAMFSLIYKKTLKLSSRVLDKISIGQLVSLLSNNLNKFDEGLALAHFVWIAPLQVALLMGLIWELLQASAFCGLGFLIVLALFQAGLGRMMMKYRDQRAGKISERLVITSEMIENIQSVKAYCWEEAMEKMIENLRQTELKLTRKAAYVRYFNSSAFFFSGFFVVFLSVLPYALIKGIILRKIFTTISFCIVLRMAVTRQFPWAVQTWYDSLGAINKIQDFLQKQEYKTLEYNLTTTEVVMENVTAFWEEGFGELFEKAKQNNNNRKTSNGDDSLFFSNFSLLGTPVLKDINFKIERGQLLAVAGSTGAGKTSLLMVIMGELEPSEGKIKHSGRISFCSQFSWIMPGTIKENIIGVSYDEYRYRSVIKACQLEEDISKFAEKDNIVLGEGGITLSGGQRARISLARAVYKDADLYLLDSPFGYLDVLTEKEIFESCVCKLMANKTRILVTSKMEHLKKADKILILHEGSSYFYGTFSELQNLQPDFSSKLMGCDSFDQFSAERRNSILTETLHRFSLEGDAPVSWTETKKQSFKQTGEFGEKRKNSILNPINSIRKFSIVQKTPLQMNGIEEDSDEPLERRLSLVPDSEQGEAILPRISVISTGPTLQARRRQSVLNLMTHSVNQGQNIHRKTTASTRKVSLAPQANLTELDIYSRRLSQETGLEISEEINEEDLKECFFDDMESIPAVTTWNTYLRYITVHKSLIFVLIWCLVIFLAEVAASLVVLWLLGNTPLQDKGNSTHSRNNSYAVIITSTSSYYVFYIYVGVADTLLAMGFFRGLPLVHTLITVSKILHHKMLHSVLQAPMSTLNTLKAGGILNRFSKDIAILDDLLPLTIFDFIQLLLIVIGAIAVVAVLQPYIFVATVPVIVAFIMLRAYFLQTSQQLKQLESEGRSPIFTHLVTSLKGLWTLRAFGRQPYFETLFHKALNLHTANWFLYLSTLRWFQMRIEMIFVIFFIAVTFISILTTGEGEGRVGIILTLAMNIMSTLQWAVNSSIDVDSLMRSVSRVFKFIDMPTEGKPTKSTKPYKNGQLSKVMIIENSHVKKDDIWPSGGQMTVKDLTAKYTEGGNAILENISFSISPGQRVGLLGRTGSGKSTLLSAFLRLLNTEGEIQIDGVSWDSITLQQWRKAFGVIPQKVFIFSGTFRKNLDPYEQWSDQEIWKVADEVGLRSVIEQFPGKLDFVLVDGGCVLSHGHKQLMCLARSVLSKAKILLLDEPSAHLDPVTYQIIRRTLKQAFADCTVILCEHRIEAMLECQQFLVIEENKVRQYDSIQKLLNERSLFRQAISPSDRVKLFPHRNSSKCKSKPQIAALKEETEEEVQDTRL
T1 sequence (P13569 whole entry G551D): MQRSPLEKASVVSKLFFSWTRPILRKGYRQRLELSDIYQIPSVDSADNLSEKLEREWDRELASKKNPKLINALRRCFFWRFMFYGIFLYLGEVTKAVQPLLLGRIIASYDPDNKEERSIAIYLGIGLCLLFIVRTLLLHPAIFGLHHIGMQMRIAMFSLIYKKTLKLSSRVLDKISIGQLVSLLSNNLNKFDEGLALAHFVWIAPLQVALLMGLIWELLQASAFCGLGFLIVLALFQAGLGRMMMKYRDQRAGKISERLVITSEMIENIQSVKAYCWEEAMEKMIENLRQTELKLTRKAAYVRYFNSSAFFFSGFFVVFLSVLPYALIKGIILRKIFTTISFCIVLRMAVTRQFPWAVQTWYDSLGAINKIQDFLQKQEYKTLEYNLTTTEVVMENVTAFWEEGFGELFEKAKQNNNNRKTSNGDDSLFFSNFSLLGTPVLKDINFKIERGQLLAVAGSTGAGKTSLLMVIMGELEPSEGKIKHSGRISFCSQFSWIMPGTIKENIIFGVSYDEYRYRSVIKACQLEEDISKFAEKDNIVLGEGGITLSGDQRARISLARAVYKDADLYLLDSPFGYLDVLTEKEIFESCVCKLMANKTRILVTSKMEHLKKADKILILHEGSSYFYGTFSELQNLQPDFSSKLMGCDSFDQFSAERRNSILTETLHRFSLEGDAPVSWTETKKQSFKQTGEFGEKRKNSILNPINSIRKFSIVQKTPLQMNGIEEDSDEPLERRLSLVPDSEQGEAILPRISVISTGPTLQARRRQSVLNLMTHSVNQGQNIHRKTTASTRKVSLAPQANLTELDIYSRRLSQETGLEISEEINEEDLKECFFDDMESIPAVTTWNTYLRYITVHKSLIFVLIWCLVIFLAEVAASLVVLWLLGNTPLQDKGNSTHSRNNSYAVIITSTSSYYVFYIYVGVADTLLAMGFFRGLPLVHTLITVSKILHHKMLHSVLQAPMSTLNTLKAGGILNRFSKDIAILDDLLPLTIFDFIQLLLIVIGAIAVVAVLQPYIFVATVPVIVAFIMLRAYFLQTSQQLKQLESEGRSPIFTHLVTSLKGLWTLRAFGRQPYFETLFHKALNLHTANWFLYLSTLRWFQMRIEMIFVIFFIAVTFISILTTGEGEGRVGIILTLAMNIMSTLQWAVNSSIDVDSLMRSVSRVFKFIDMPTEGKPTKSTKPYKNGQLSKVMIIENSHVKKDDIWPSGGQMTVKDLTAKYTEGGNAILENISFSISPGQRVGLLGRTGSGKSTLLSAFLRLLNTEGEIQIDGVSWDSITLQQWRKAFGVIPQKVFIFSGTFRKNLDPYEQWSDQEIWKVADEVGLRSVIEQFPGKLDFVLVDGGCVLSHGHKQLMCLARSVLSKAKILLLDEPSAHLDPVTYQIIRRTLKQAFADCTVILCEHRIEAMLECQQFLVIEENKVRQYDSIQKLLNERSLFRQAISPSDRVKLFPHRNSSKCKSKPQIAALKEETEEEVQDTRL

Take `COCCCNC(=O)c1ncc(S(=O)(=O)c2ccc(C(F)(F)F)cc2)cc1N` [Compound 222, 3-amino-N-(3-methoxypropyl)-5-{[4-(trifluoromethyl)phenyl]sulfonyl}pyridine-2-carboxamide]: in test [1], the “% Activation” value is on record as 48.4% and the 50% effective concentration (EC50) (commonly the concentration at which the effect is half-maximal) is 816 nM. In test [2], the “% Activation” value was determined as 108.7% and the EC50 worked out at 40.8 nM.
In the same order, the values of `Nc1cc(S(=O)(=O)c2ccc(C(F)(F)F)cc2)cnc1C(=O)NCC1CC1` [Compound 223, 3-amino-N-(cyclopropylmethyl)-5-{[4-(trifluoromethyl)phenyl]sulfonyl}pyridine-2-carboxamide] are 19.0%, more than 10000 nM, 96.4% and 49 nM.
Regarding `CC(C)COCC(O)CNC(=O)c1ncc(S(=O)(=O)c2ccc(OC(F)(F)F)cc2F)cc1N` (stereo not drawn) [Compound 171, 3-amino-5-{[2-fluoro-4-(trifluoromethoxy)phenyl]sulfonyl}-N-[2-hydroxy-3-(2-methylpropoxy)propyl]pyridine-2-carboxamide], in test [1], the “% Activation” value is given as 86.4% and it took 991 nM to reach a half-maximal effect (EC50). In test [2], the “% Activation” value came out at 103.7% and the EC50 was 8.7 nM.
In the same order, the values of `Nc1cc(S(=O)(=O)c2ccc(OC(F)(F)F)cc2F)cnc1C(=O)NC[C@@H](O)C(F)(F)F` [Compound 117, 3-amino-5-{[2-fluoro-4-(trifluoromethoxy)phenyl]sulfonyl}-N-[(2R)-3,3,3-trifluoro-2-hydroxypropyl]pyridine-2-carboxamide] are 79.8%, 218 nM, 107.9% and 1.7 nM.
In the same order, the values of `CC(C)C(C)NC(=O)c1ncc(S(=O)(=O)c2ccc(C(F)(F)F)cc2)cc1N` (stereo not drawn) [Compound 188, 3-amino-N-(3-methylbutan-2-yl)-5-{[4-(trifluoromethyl)phenyl]sulfonyl}pyridine-2-carboxamide] are 13.4%, more than 10000 nM, 88.8% and 378 nM.
In the same order, the values of `C[C@H](O)CNC(=O)c1nc(Oc2cccc(F)c2)c(S(=O)(=O)c2ccc(OC(F)(F)F)cc2)cc1N` [Compound 284, 3-amino-6-(3-fluorophenoxy)-N-[(2S)-2-hydroxypropyl]-5-{[4-(trifluoromethoxy)phenyl]sulfonyl}pyridine-2-carboxamide] are 67.0%, 1620 nM, 95.1% and 6.3 nM.
With `COCC(=O)NNC(=O)c1ncc(S(=O)(=O)c2ccc(OC(F)(F)F)cc2)cc1N` [Compound 286, 3-amino-N′-(methoxyacetyl)-5-{[4-(trifluoromethoxy)phenyl]sulfonyl}pyridine-2-carbohydrazide], in test [1], the “% Activation” value turned out to be 26.8%. For the same molecule, in test [2], the “% Activation” value came out at 79.7% and the EC50 stood at 88.1 nM.
On to `Nc1cc(S(=O)(=O)c2cccc(F)c2)cnc1C(=O)NC[C@@H](O)C(F)(F)F` [Compound 254, 3-amino-5-[(3-fluorophenyl)sulfonyl]-N-[(2R)-3,3,3-trifluoro-2-hydroxypropyl]pyridine-2-carboxamide], for which, in test [1], the “% Activation” value is recorded as 56.0% and it took 1450 nM to reach a half-maximal effect (EC50). In test [2], the “% Activation” value amounted to 106.0% and a half-maximal response (EC50) required 5 nM.
For `Nc1cc(S(=O)(=O)c2ccc(C(F)(F)F)cc2)cnc1C(=O)NCCOCC1CCCO1` (stereo not drawn) [Compound 190, 3-amino-N-[2-(tetrahydrofuran-2-ylmethoxy)ethyl]-5-{[4-(trifluoromethyl)phenyl]sulfonyl}pyridine-2-carboxamide], in test [1], the “% Activation” value is reported as 67.4% and the 50% effective concentration (EC50) is 1880 nM. For the same molecule, in test [2], the “% Activation” value stood at 96.6% and the concentration giving a half-maximal response (EC50) turned out to be 135 nM.
In the same order, the values of `Nc1cc(S(=O)(=O)c2ccc(C(F)(F)F)cc2F)cnc1C(=O)N1CC(O)(C(F)(F)F)C1` [Compound 112, (3-amino-5-{[2-fluoro-4-(trifluoromethyl)phenyl]sulfonyl}pyridin-2-yl)[3-hydroxy-3-(trifluoromethyl)azetidin-1-yl]methanone] are 74.1%, 157 nM, 100.6% and 2.6 nM.
`Nc1cc(S(=O)(=O)c2ccc(OC(F)(F)F)cc2)cnc1C(=O)N1CC(F)C1` [Compound 67, (3-amino-5-{[4-(trifluoromethoxy)phenyl]sulfonyl}pyridin-2-yl)(3-fluoroazetidin-1-yl)methanone]: the “% Activation” value worked out at 73.6% in test [1] and 110.0% in test [2]. Besides, the EC50 in test [1] is 1590 nM; in test [2], 25.8 nM.
Regarding `Nc1cc(S(=O)(=O)c2ccc(OC(F)(F)F)cc2)cnc1C(=O)NCC(O)C(F)F` (stereo not drawn) [Compound 279, 3-amino-N-(3,3-difluoro-2-hydroxypropyl)-5-{[4-(trifluoromethoxy)phenyl]sulfonyl}pyridine-2-carboxamide], in test [1], the “% Activation” value turned out to be 57.2% and the midpoint of the response, the EC50, lay at 662 nM. In test [2], the “% Activation” value is recorded as 113.0% and the EC50 is 1.7 nM.
In the same order, the values of `Nc1cc(S(=O)(=O)c2ccc(OC(F)(F)F)cc2)cnc1C(=O)NC[C@H](O)COCC1CC1` [Compound 242, 3-amino-N-[(2S)-3-(cyclopropylmethoxy)-2-hydroxypropyl]-5-{[4-(trifluoromethoxy)phenyl]sulfonyl}pyridine-2-carboxamide] are 71.5%, 841 nM, 103.0% and 25.4 nM.
Taken in the same sequence, the figures for `Nc1cc(S(=O)(=O)N2CCCC(F)C2)cnc1C(=O)NCC(O)C(F)(F)F` (stereo not drawn) [Compound 194, 3-amino-5-[(3-fluoropiperidin-1-yl)sulfonyl]-N-(3,3,3-trifluoro-2-hydroxypropyl)pyridine-2-carboxamide] were 62.3%, 1780 nM, 95.7% and 32.7 nM.
Turning to `C[C@H](O)CNC(=O)c1nc(NC2CC2)c(S(=O)(=O)c2ccc(OC(F)(F)F)cc2)cc1N` [Compound 285, 3-amino-6-(cyclopropylamino)-N-[(2S)-2-hydroxypropyl]-5-{[4-(trifluoromethoxy)phenyl]sulfonyl}pyridine-2-carboxamide], the “% Activation” value in test [1] was 52.5%; in test [2], 86.7%. The concentration giving a half-maximal response (EC50) in test [1] came to 776 nM; in test [2], 4.2 nM.
In the same order, the values of `COCC(O)CCNC(=O)c1ncc(S(=O)(=O)c2ccc(OC(F)(F)F)cc2)cc1N` (stereo not drawn) [Compound 54, 3-amino-N-(3-hydroxy-4-methoxybutyl)-5-{[4-(trifluoromethoxy)phenyl]sulfonyl}pyridine-2-carboxamide] are 62.6%, 89.2%, 1660 nM and 72.9 nM.
As to `CC(C)C1(O)CN(C(=O)c2ncc(S(=O)(=O)c3ccc(OC(F)(F)F)cc3F)cc2N)C1` [Compound 175, (3-amino-5-{[2-fluoro-4-(trifluoromethoxy)phenyl]sulfonyl}pyridin-2-yl)[3-hydroxy-3-(propan-2-yl)azetidin-1-yl]methanone], in test [1], the “% Activation” value is 44.0% and the concentration for a half-maximal effect (EC50) was more than 3330 nM. Moreover, in test [2], the “% Activation” value was found to be 103.0% and the EC50 was 6.3 nM.
With `Nc1cc(S(=O)(=O)c2ccc(C(F)(F)F)cc2)cnc1C(=O)NC[C@H](O)COCC(F)(F)F` [Compound 249, 3-amino-N-[(2S)-2-hydroxy-3-(2,2,2-trifluoroethoxy)propyl]-5-{[4-(trifluoromethyl)phenyl]sulfonyl}pyridine-2-carboxamide], in test [1], the “% Activation” value turned out to be 83.7% and a half-maximal effect (EC50) was put at 172 nM. Besides, in test [2], the “% Activation” value turned out to be 96.2% and the concentration for a half-maximal effect (EC50) is 3 nM.
Taken in the same sequence, the figures for `Nc1cc(S(=O)(=O)c2ccc(OC(F)(F)F)cc2)cnc1C(=O)N[C@@H]1CCCOC1` [Compound 140, 3-amino-N-[(3R)-tetrahydro-2H-pyran-3-yl]-5-{[4-(trifluoromethoxy)phenyl]sulfonyl}pyridine-2-carboxamide] were 39.9%, more than 10000 nM, 97.7% and 51 nM.
`Nc1cc(S(=O)(=O)c2ccc(F)cc2)cnc1C(=O)NCC1(O)CC1` [Compound 30, 3-amino-5-[(4-fluorophenyl)sulfonyl]-N-[(1-hydroxycyclopropyl)methyl]pyridine-2-carboxamide]: the “% Activation” value in test [1] came out at 36.4%; in test [2], 94.6%. Moreover, the half-maximal effective concentration (EC50) was 5770 nM in test [1] and 53.7 nM in test [2].
In the same order, the values of `Nc1cc(S(=O)(=O)c2ccc(OC(F)(F)F)cc2)cnc1C(=O)NC1COC1` [Compound 151, 3-amino-N-(oxetan-3-yl)-5-{[4-(trifluoromethoxy)phenyl]sulfonyl}pyridine-2-carboxamide] are 3.0%, 16.9%, more than 5000 nM and more than 1000 nM.
`CC(C)(O)CNC(=O)c1ncc(S(=O)(=O)c2cccc(F)c2)cc1N` [Compound 39, 3-amino-5-[(3-fluorophenyl)sulfonyl]-N-(2-hydroxy-2-methylpropyl)pyridine-2-carboxamide]: in test [1], the “% Activation” value is listed as 5.0% and the half-maximal effective concentration (EC50) was more than 10000 nM. In addition, in test [2], the “% Activation” value was found to be 42.5% and a half-maximal response (EC50) required 155 nM.
